Measured values published in patent publication US8779002B2, “Methods for treating a variety of diseases and conditions, and compounds useful therefor” (Salk Institute for Biological Studies, priority 2007, dated 2014).
Where two headings read alike, the source gives them in different places.

Assays:
CREB = CREB phosphorylation; type: cell-based, mouse; parameters: key: + = positive result or enzyme activation
Text: CREB activation has been linked to cell survival and accordingly, is considered to be a validated therapeutic target (Vaishnov, et al, Biochem. Biophys. Res. Commun. 307:855-860 (2003)). Similar to the concept of programmed cell death which involves transcription factors pivotal in switching on the nerve cell death program is the transcriptional control of programmed cell life. For example, recent studies of the activation of the CREB transcription factor in stroke models have shown that CREB is phosphorylated (and presumably activated) in neurons that survive this insult.
CREB phosphorylation in response to oxidative stress is evaluated in the presence of invention compounds. Glutamate is added to HT22 cells in the presence or absence of Cmpd CNB-001 (at 1 μM). The ratio of phosphorylated CREB to total CREB is then measured as a function of time. Furthermore, all of the HT22 cells die in the absence of Cmpd CNB-001, and over 90% live in the presence of Cmpd CNB-001.

primary cortical neurons = test: Trophic factor withdrawal (TFW) assay; type: cell-based, rat; conditions: Rattus norvegicus, Primary cortical neuron
Description: FIG. 1A illustrates the results of a trophic factor withdrawal assay. Primary cortical neurons are prepared from 18-day-old rat embryos, and cultured at low cell density 1×10^6/35 mm dish, in serum containing medium, with different compounds Viability is then assayed 2 days later using a fluorescent live-dead assay (Molecular Probes).
Primary cortical neurons can be prepared from 18-day-old embryos of Sprague-Dawley rats as described (Liu & Schubert, J. Neurochem., 1997, 69:2285-2293 and J. Neurochem., 1998, 71:2322-2329). Briefly, the cerebral cortex is dissected out under an anatomical microscope and is freed of meninges and blood vessels. The cortex is cut into small pieces and is then dissociated by trypsin digestion and passed through a pipette tip. Dissociated neurons are suspended in various media and plated on polylysine-coated 35 mm tissue culture dishes (e.g., 1×10^6 cells/dish). Several different culture conditions can be used as known in the art. Invention compounds can be added to cell culture dishes. Cell survival can be measured 1-2 days after compound administration.
A serum-containing medium can be used which includes a minimal essential medium (Sigma) containing 30 mM glucose, 2 mM glutamine, 1 mM pyruvate, penicillin (100 U/ml), streptomycin (100 μg/ml), and 10% fetal calf serum. At a plating density of 1×10^6 cells/dish, most neurons die after one week of culture in this medium. If plated at a density of 2×10^6 cells/dish, then most neurons survive. The cell density-dependent neuronal survival in this system is most likely dependent on the neurotrophic factors secreted by the neurons, not by the glia. The results are the same when glial proliferation is inhibited by cytosine arabinoside.
The structure-activity relationships of compounds according to the present invention can be determined by measuring trophic factor withdrawal in […] primary cortical neurons. As shown in FIG. 1A-FIG. 1D, compounds are added to low density primary cultures of E18 rat cortical neurons at the time of plating, and cell survival is determined two days later by a variety of methods.

Wistar rats = test: Novel object recognition task in rats; type: in vivo, rat; conditions: for Recognition index, Mean: Wistar rats, n=8
Description: FIG. 6 illustrates the effect of galantamine, compounds CNB-001, J147, SK186 and SKI 87 on object recognition task in Wistar rats. The data represent mean±SEM. *p<0.05 compared with the vehicle control.
This model is based on the greater spontaneous exploration of a novel object, compared with a familiar object, shown by rodents (see Ennaceur and Delacour in Behav. Brain Res. 31:47 (1988)). Male Wister rats are assessed for cognitive ability in a test apparatus comprising an open-field arena placed in a sound-attenuated room under dimmed lighting. Images of the open-field are captured by digital camera, and viewed on a monitor in an adjoining room. Each rat is subjected to the procedure separately and care is taken to remove any olfactory/taste cues by cleaning the arena and test objects with alcohol between trials and rats.
Adult male Wistar rats were employed in all rat studies. Animals were placed in the experimental rooms at postnatal day 80 and assigned unique identification numbers (tail marked). Pairs were housed in polycarbonate cages with filter tops and acclimated for 3 days prior to commencing any studies. Animals were maintained in a 12 hour light/dark cycle with room temperature maintained at 22±2° C. with a relative humidity maintained approximately 50%. Food and water were provided ad libitum.
All animals were examined, handled, and weighed for a further two days prior to initiation of the study to assure adequate health and suitability and to minimize non-specific stress associated with manipulation. Each animal was randomly assigned across the treatment groups and balanced by cage numbers. The novel object recognition experiment was performed during the animal's light cycle phase. Drug treatments were balanced across days and animals were only used once
The following compounds were used for this study—Reference compound (Galantamine; 3 mg/kg) was dissolved in 0.9% saline and administered i.p. 1 hour pre-test at a dose volume of 1 ml/kg, and all test compounds were handled in solution, and were kept at −80° C. until use. All compounds were administered orally 60 min prior to training at a volume of 1 ml/kg body weight.
Following a 5-minute habituation period, each rat was placed into the test arena in the presence of two identical objects (plastic shapes). Each rat was placed facing the same direction at the same position in the arena, and the time spent actively exploring the objects during a 5-minute test period (T1) was recorded. The rat was returned to its home cage between tests. After 24 hours, each rat was again placed in the test arena for 5 minutes (T2) in the presence of one of the familiar objects and a novel object, and the time spent exploring both objects was again recorded. The presentation order and position of the objects (left/right) was randomized between rats to prevent bias from order or place preference. A preference index for each object, the ratio of the time spent exploring either the familiar object or the novel object over the total time spent exploring both objects (during retention session T2) was used to measure cognitive function.
Data were analyzed by a one-way analysis of variance (ANOVA) followed by post-hoc comparisons with Fisher Tests when appropriate. An effect was considered significant if p<0.05. Data in the following tables are presented as the mean and standard error to the mean.

[1] = system: double transgenic (mutated PS1 and APP) Alzheimer's mouse model; test: Morris Water Maze in Alzheimer's mouse model; type: in vivo; conditions: in the food for 4 months at 100 ppm
Description: FIG. 7 illustrates that […] improves spatial learning and memory in the Morris Water Maze. A circular water tank four feet in diameter, containing water at 26-27° C., is made opaque with white pigment, and a platform placed in the NW quadrant. Mice were randomly introduced to the tank facing the wall in one of the other quadrants for a trial of 50 s or until they found the platform. Upon reaching the platform, or at the end of the 50 s, the mice were placed on the platform, the mice were left on the platform for 15 s. There were four trials per mouse each day for seven consecutive days. The data are presented as the average time to reach the platform (escape latency) of the 4 daily trials for each group of mice. There are 3 groups of 5 mice each. One is wild type (circles), another is a double transgenic (mutated PS1 and APP) Alzheimer's mouse model (rectangle), and the third is the AD mouse plus J147 that has been in the food for 4 months at 100 ppm (diamond).

[2] = Cell Culture (Table 2), read-out: Trophic Factor Withdrawal
[3] = 5 mg/kg orally 60 min prior to training
[4] = 10 mg/kg orally 60 min prior to training
[5] = 25 mg/kg orally 60 min prior to training

SMILES	CREB (CREB)	EC50 (primary cortical neurons; [2]) [nM]	Recognition index, Mean (Wistar rats; [3])	Recognition index, Mean (Wistar rats; [4])	Effect on recognition index (Wistar rats; 10 mg/kg, versus vehicle, p<0.05)	Recognition index, Mean (Wistar rats; [5])	Fisher's PLSD for Recognition index, Mean Diff. (*vehicle, treatment) (Wistar rats; vehicle versus 5 mg/kg oral)	Fisher's PLSD for Recognition index, Mean Diff. (*vehicle, treatment) (Wistar rats; vehicle versus 10 mg/kg oral)	Fisher's PLSD for Recognition index, Mean Diff. (*vehicle, treatment) (Wistar rats; vehicle versus 25 mg/kg oral)	EC50 (primary cortical neurons; Trophic factor withdrawal assay, read-out: TFW EC50) [nM]	Deficit in memory of AD mice relative to wild type (escape latency) [1]
COc1cc(/C=C/c2cc(/C=C/c3ccc(O)c(OC)c3)n(-c3ccccc3)n2)ccc1O [CNB-001]	+	500	63.663	77.964	significantly increased	45.226	−11.741	−26.042	6.697	–	–
COc1cccc(/C=N/N(C(=O)C(F)(F)F)c2ccc(C)cc2C)c1 [Compound J147]	+	10	63.053	54.213	–	51.372	−11.130	−2.291	.550	50	corrected
